Assay results reported in patent US20190002448A1, “SUBSTITUTED BENZOFURANYL AND BENZOXAZOLYL COMPOUNDS AND USES THEREOF” (Karyopharm Therapeutics Inc., priority 2015, published 2019).
pIC50: −log10 of the molar value.

Columns and labels:
Format in all cases: cell-based
Z138 cells = assay: MTT cell proliferation assay, Z138 cells; details: Homo sapiens, Z-138, approximately 64-72 hours incubation
Experimental: (§1) The MTT cell proliferation assay was used to study the cytotoxic properties of the compounds. The assay was performed according to the method described by Roche Molecular Biochemicals, with minor modifications. The assay is based on the cleavage of the tetrazolium salt, MTT, in the presence of an electron-coupling reagent. The water-insoluble formazan salt produced must be solubilized in an additional step. Cells grown in a 96-well tissue culture plate were incubated with the MTT solution for approximately 4 hours. After this incubation period, a water-insoluble formazan dye formed. After solubilization, the formazan dye was quantitated using a scanning multi-well spectrophotometer (ELISA reader). […] The cells were seeded at 5,000-10,000 cells in each well of 96-well plate in 100 μL of fresh culture medium and were allowed to attach overnight. The stock solutions of the compounds were diluted in 100 μL cell culture medium to obtain eight concentrations of each test compound, ranging from 1 nM to 30 μM. […] All optical densities were measured at 490 nm using a Vmax Kinetic Microplate Reader (Molecular Devices). In most cases, the assay was performed in duplicate and the results were presented as a mean percent inhibition to the negative control±SE. The following formula was used to calculate the percent of inhibition: Inhibition (%)=(1−(ODo/OD))×100.
(§2) The compounds were tested against MS751, Z138 and 3T3 cells. The MS751 cell line is derived from a metastasis to lymph node of human cervix from a patient diagnosed with squameous cell carcinoma of the cervix. The Z138 cell line is a mature B-cell acute lymphoblastic leukemia cell line derived from a patient with chronic lumphocytic leukemia. 3T3 cells are standard fibroblast cells; they were originally isolated from Swiss mouse embryo tissue.

MS751 cells = assay: MTT cell proliferation assay, MS751 cells; details: Homo sapiens; MS751 cervical squamous cell carcinoma cells; approximately 64-72 hours incubation; read-out: MTT Assay IC50 MS-751
Experimental: as §1, §2

3T3 cells = assay: MTT cell proliferation assay, 3T3 cells; details: Mus musculus, NIH3T3; 3T3 fibroblast cells; approximately 64-72 hours incubation
Experimental: as §1, §2

Measured: pIC50

Nc1ccc(/C=C/C(=O)NCc2cc3cc(-c4ccc(C(=O)N5CCC(F)(F)CC5)cc4)cc(Oc4ccc(F)cc4)c3o2)cn1 [Compound 100, (E)-3-(6-aminopyridin-3-yl)-N-((5-(4-(4,4-difluoropiperidine-1-carbonyl)phenyl)-7-(4-fluorophenoxy)benzofuran-2-yl)methyl)acrylamide]
5.30 to 7.00: all assays above

Nc1ccc(/C=C/C(=O)NCc2cc3cc(-c4ccc(C(=O)N5CCC(F)(F)CC5)cc4)cc(Oc4cccc(F)c4)c3o2)cn1 [Compound 101, (E)-3-(6-aminopyridin-3-yl)-N-((5-(4-(4,4-difluoropiperidine-1-carbonyl)phenyl)-7-(3-fluorophenoxy)benzofuran-2-yl)methyl)acrylamide]
5.30 to 7.00: all assays above

Nc1ccc(/C=C/C(=O)NCc2cc3cc(-c4ccc(C(=O)N5CCC(F)(F)CC5)cc4F)cc(Oc4cccc(F)c4)c3o2)cn1 [Compound 102, (E)-3-(6-aminopyridin-3-yl)-N-((5-(4-(4,4-difluoropiperidine-1-carbonyl)-2-fluorophenyl)-7-(3-fluorophenoxy)benzofuran-2-yl)methyl)acrylamide]
5.30 to 7.00: all assays above

Nc1ccc(/C=C/C(=O)NCc2cc3cc(-c4ccc(C(=O)N5CCC(F)(F)CC5)cc4F)cc(Oc4ccc(F)cc4)c3o2)cn1 [Compound 103, (E)-3-(6-aminopyridin-3-yl)-N-((5-(4-(4,4-difluoropiperidine-1-carbonyl)-2-fluorophenyl)-7-(4-fluorophenoxy)benzofuran-2-yl)methyl)acrylamide]
5.30 to 7.00: all assays above

Nc1ccc(/C=C/C(=O)NCc2cc3cc(-c4ccc(C(=O)N5CCC(F)(F)CC5)cc4)cc(OC4CCC4)c3o2)cn1 [Compound 104, (E)-3-(6-aminopyridin-3-yl)-N-((7-cyclobutoxy-5-(4-(4,4-difluoropiperidine-1-carbonyl)phenyl)benzofuran-2-yl)methyl)acrylamide]
5.30 to 7.00: all assays above

Nc1ccc(/C=C/C(=O)NCc2cc3cc(-c4ccc(C(=O)N5CCC(F)(F)CC5)cc4F)cc(OC4CCC4)c3o2)cn1 [Compound 105, (E)-3-(6-aminopyridin-3-yl)-N-((7-cyclobutoxy-5-(4-(4,4-difluoropiperidine-1-carbonyl)-2-fluorophenyl)benzofuran-2-yl)methyl)acrylamide]
5.30 to 7.00: all assays above
